Measurements reported in patent US9642922B2, “Caspase-triggered nano-aggregation probes and methods of use” (The Board of Trustees of the Leland Stanford Junior …, priority 2013, dated 2017).
Positions count from the first letter of the chain named. Marks after values point to notes of the source that are not given here.

Tests used:
[1] = system: STS-induced apoptotic HeLa cells; assay: Flow cytometry of STS-induced apoptotic HeLa cells labeled with probes; type: cell-based, human; details: 2 μM probe, compared with C-SNAF
Method: Approximately 10^5 HeLa cells in 1 mL DMEM medium were seeded onto 12-well plates. […] For the inhibitor blocking experiment, the STS-treated cells were first incubated with the caspase inhibitor Z-VAD-fmk (50 μM, R&D Systems) for 30 min, and then 2 μM C-SNAF was added. All cells incubations were 24 h, followed by staining with FLICA (FAM) after trypsinization. After washing with PBS (1×) three times, the cell pellets were resuspended in 300 μL PBS and applied for flow cytometry analysis using the FITC and Cy5.5 channels. The cell number for each flow cytometry analysis was approximately 5000 to 10000, and the data was processed using FlowJo software.

subcutaneous HeLa tumors = assay: In vivo fluorescence imaging of DOX-treated HeLa tumor-bearing mice; parameters: species or system mouse
Method: C-SNAF or either of the control probes (5 nmol) was administered intravenously to tumor-bearing mice and whole animal fluorescence was longitudinally monitored using a Maestro fluorescence imager.
To establish tumors in 6-week-old female nu/nu mice, 2×10^6 HeLa cells suspended in 50 μL of a 50% v/v mixture of Matrigel in supplemented DMEM (10% FBS, 1% penstrep) were injected subcutaneously in the shoulders of the mouse. Tumors were grown until a single aspect was 0.7 to 0.9 cm (approximately 10-15 days), and then treatment consisting of 8 mg/kg DOX or saline was initiated. Treatments were administered intravenously once every 4 d for a total of three times. Total mouse body weight and tumor size (width and length by caliper) was measured every other day. Tumor volumes were calculated assuming ellipsoid shape with the formula (l×w^2)/2.
Two days following the final treatment, 5 nmol probe in saline was injected intravenously and fluorescence imaging began immediately on a Maestro hyperspectral fluorescent imaging system (PerkinElmer, Mass., USA) using a 635±25 nm excitation filter and a 675 nm long-pass emission filter, with images acquired from 670 to 900 nm. Tissue autofluorescence and Cy5.5 fluorescence were deconvolved, and tumor fluorescence intensity was quantified by region of interest measurement using Nuance v.3.0.1.2 software (Perkin Elmer, Mass., USA).

apoptotic HeLa cells = assay: Epifluorescence microscopy of apoptotic HeLa cells labeled with probes; type: cell-based, human; details: microscopy, 2 μM probe
Method: After removal of the medium, the cells were incubated with C-SNAF, L-ctrl, or D-ctrl at 2 μM for 24 h. Some cells were first incubated with caspase inhibitor (Z-VAD-fmk, 50 μM) for 30 min, followed by incubating with 2 μM C-SNAF for 24 h. The cells were carefully washed with PBS (1×) three times, and stained with Hoechst 33342 (2 μM) at 37° C. for 30 min. After rinses with PBS (1×) several times, the medium was replaced and the fluorescence images were acquired with DAPI and Cy5.5 filters. The images were processed using the standard CRi Nuance software, analyzed using Image J software package (NIH), and presented at the same intensity scale for comparison.
HeLa cells in #1.5 borosilicate 8-well chambered coverslips (Nunc) were either incubated with C-SNAF (2 μM) alone or co-incubated with DOX (1, 2, and 5 μM) and 2 μM C-SNAF, 2 μM C-SNAF together with caspase inhibitor (Z-VAD-fmk, 50 μM), or control probes D-ctrl and L-ctrl at 2 μM for 24 h. Then the medium was removed, the cells were carefully washed with PBS (1×) three times, and stained with nuclear binding probe Hoechst 33342 (2 μM) at 37° C. for 30 min. After several rinses with PBS (1×), the medium was replaced and the fluorescence images were acquired with DAPI and […] filters.

caspase-3 [2] = molecular target: T1, caspase-3 (Homo sapiens, UniProt P42574); assay: HPLC assay of caspase-3-triggered macrocyclization of C-SNAF; type: biochemical; parameters: purchased Sigma; host or cells: E. coli; details: same conditions as C-SNAF; D-ctrl after 24 h
T1 sequence (P42574 29-175 limits assumed): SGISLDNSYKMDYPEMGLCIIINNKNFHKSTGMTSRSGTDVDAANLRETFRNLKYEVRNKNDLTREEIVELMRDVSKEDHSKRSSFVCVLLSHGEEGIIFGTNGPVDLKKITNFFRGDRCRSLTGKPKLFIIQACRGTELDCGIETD
T1 sequence (P42574 176-277 limits assumed): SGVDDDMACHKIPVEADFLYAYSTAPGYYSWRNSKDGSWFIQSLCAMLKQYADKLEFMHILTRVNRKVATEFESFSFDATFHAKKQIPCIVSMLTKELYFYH
Method: The progression of caspase-3-triggered macrocyclization of C-SNAF to form C-SNAF-cycl in solution was monitored using high-performance liquid chromatography (HPLC) following incubation of the probe (25 μM) with recombinant human caspase-3 (4.9×10^−[…]).
Caspase (human, recombinant from E. coli) assays were performed for caspase-3 (4.9×10^−3 U; 7.35×10^−4 mg, Sigma), −7 (18.3 U; 7.35×10^−4 mg, Calbiochem), and −9 (0.3 U; 7.35×10^−4 mg, Calbiochem). All caspase assays were conducted in caspase buffer with 50 mM HEPES, 100 mM NaCl, 1 mM EDTA, 10 mM TCEP, 10% glycerol, and 0.1% CHAPS at pH 7.4. Cathepsin B (human liver; 0.27 U; 7.35×10^−4 mg, Calbiochem) and Legumain (human, recombinant from mouse myeloma cell line; >250 pmol/min/μg; 7.35×10^−4 mg, R&D Systems) were conducted in reaction buffer with 50 mM sodium acetate, 50 mM NaCl, 0.5 mM EDTA and 10 mM TCEP at pH 5.5. C-SNAF was diluted in the respective enzyme reaction buffer (25 μM, 1 mL) and remained at room temperature for 10 min, to which was then added the respective enzymes. Reactions were performed at 37° C., and monitored by HPLC hourly. The percentage conversion of the reaction was calculated based on the percentage of peak area of C-SNAF-cycl in the HPLC trace at 675 nm UV detection, which indicated the efficacy of enzyme cleavage of C-SNAF.

Caspase-3 [3] = molecular target: T2, Caspase-3 (Mus musculus, UniProt P70677); details: cited from earlier work
T2 sequence (P70677 29-175 limits assumed): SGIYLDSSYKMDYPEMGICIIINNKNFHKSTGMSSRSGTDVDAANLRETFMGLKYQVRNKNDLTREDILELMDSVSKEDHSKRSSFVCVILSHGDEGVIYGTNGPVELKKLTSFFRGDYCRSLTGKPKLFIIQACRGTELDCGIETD
T2 sequence (P70677 176-277 limits assumed): T1 sequence (P42574 176-277 limits assumed) with V3T, D5E, D6E, H10Q, A46S, Q50L, D53H, F77L, A79S

PS binding = details: cited from earlier work

CC[N+]1=C(C=CC=CC=C2N(CCCCCC(=O)NCCCCC(NC(=O)C(CSC)NC(=O)C(CC(=O)O)NC(=O)C(NC(=O)C(CCC(=O)O)NC(=O)C(CC(=O)O)NC(C)=O)C(C)C)C(=O)Nc3ccc4nc(C5=NC(C(=O)NCCCOc6ccc7ncccc7c6)CS5)sc4c3)c3ccc4c(S(=O)(=O)O)cc(S(=O)(=O)O)cc4c3C2(C)C)C(C)(C)c2c1ccc1c(S(=O)(=O)O)cc(S(=O)(=O)[O-])cc21 [D-ctrl]
fluorescent intensity of apoptotic cells incubated with control probes [1]: much lower fluorescent intensity | correlation (r) of maximum tumor fluorescence with maximum tumor size change (subcutaneous HeLa tumors; 3×DOX-treated mice, 1 h after probe): no significant correlation | average signal enhancement between DOX- and saline-treated tumors (subcutaneous HeLa tumors; 4 h after probe administration): −12% | tumor fluorescence lower than that of C-SNAF (subcutaneous HeLa tumors; DOX-treated mice, 1 h): 10% | fluorescence of apoptotic cells compared to C-SNAF (apoptotic HeLa cells): relatively weaker fluorescence | products observed after incubation with caspase-3 (caspase-3 [2]): no new products were observed

O=C1C(=O)N(Cc2cn(CC[18F])nn2)c2ccc(S(=O)(=O)N3CCCC3COc3ccc(F)cc3F)cc21 (stereo not drawn) [[^18F]ICMT-11]
Target/Background (Tumor/blood) (Caspase-3 [3]; Tumor/blood): 1.2^c | time course of uptake at the apoptotic tumors (Caspase-3 [3]; mouse, in vivo): decreased over the time after injection | Treated/Untreated (Caspase-3 [3]; treated and untreated group in different animal): 1.5^d

B1: [^18F]Annexin V: known apoptosis PET tracer, PS binding (protein, UniProt P08758 2-320, looked up)
Annexin A5: AQVLRGTVTDFPGFDERADAETLRKAMKGLGTDEESILTLLTSRSNAQRQEISAAFKTLFGRDLLDDLKSELTGKFEKLIVALMKPSRLYDAYELKHALKGAGTNEKVLTEIIASRTPEELRAIKQVYEEEYGSSLEDDVVGDTSGYYQRMLVVLLQANRDPDAGIDEAQVEQDAQALFQAGELKWGTDEEKFITIFGTRSVSHLRKVFDKYMTISGFQIEETIDRETSGNLEQLLLAVVKSIRSIPAYLAETLYYAMKGAGTDDHTLIRVMVSRSEIDLFNIRKEFRKNFATSLYSMIKGDTSGDYKKALLLLCGEDD
modifications: 18F radiolabel
% ID/g at target site (PS binding; PET imaging): 1.56 ± 0.2 % ID/g | Target/Background (PS binding; maximum value at the apoptotic tissue): 3.4 | Treated/Untreated (PS binding; pre and post treatment in same animal): 1.6^b
